Assay results as given in patent US20250134952A1, “METHODS FOR IMPROVING THE EFFICACY OF HDAC INHIBITOR THERAPY AND PREDICTING THE RESPONSE TO TREATMENT WITH HDAC INHIBITOR” (INSTITUT NATIONAL DE LA SANTÉ ET DE LA RECHERCHE MÉDICALE, priority 2021, published 2025).

What was measured:
[1] = test system: HP1α clusters in MCF7shctrl and shTau cells; assay: HP1α clusters per nucleus, confocal immunofluorescence; type: cell-based, human; conditions: 100 nM TSA, 24 h
Protocol: (A) Representative confocal sections of MCF7shctrl and shTau cells untreated or treated with 100 nM TSA for 24 h. […] (B) Quantification of HP1α clusters per nuclei visualized as described previously and realized on three independent experiments. (C) GADD45a and (D) p21 (CDKN1a) expression in MCF7shctrl and shTau cells untreated or treated with 100 nM TSA for 24 h were analyzed by real-time PCR and normalized to RPLO. Results are expressed, relative to the basal activity set to 1, as the mean±SD of three independent assays. (E) Tau tethering prevents adjacent reporter gene activity induced by TSA. GAL4UAS responsive luciferase reporter Hela stable cell line was transfected with GAL4DBD (GAL4) or GAL4DBD-Tau4R and then, 24 h later, treated with TSA (600 nM) for 24 h. The luciferase activity was determined as described in the Materials and Methods. (F) Ectopic Tau4R expression prevents adjacent reporter gene activity induced by TSA. […] The luciferase activity was determined as described in the Materials and Methods. […]
MCF7shctrl, MCF7shTau or transfected Hela cells with Tau4R and GFP-HP1α were fixed in 4% paraformaldehyde for 30 min at room temperature. […] Slides were then analyzed with a Zeiss LSM710 confocal laser scanning microscope (60× magnification). Images were collected in the Z direction at 0.80 μm intervals and quantifications were realized using the Image J plug-in.

[2] = test system: p21 promoter in MCF7shctrl or shTau cells; assay: ChIP-qPCR of H3 acetylation and Tau occupancy on the p21 promoter; type: cell-based, human; conditions: for acetylated H3 enrichment compared to IgG: p21 promoter (transcription start site region)
From the text: (§1) (A) Chromatin immunoprecipitations-qPCR analysis of H3 acetylation and Tau occupancy on the GAPDH promoter in MCF7shctrl cells in the indicated conditions. MCF7shctrl cells were subjected to cross-linking by 1% formaldehyde. Chromatin fragments were then immunoprecipitated using antibodies (Ab) against acetylated H3 (ac-H3) or Tau and analyzed by quantitative PCR for the presence of the GAPDH promoter. (B) Functional organization of the p21 promoter. (C) ChIP-qPCR analysis of H3 acetylation in MCF7shctrl or shTau cells or (D) Tau occupancy in MCF7shctrl cells on the p21 promoter. (E) ChIP-qPCR analysis of H3 acetylation or Tau occupancy on the stably transfected GAL4UAS responsive luciferase reporter transfected, or not, with Tau4R, then 24 h later treated with 100 nM TSA for 24 h. Cells were then subjected to cross-linking by 1% formaldehyde. Chromatin fragments were then immunoprecipitated using antibodies (Ab) against acetylated H3 or Tau and analyzed by quantitative PCR for the presence of the GAL4 UAS promoter. Quantification of enrichment is represented as fold-enrichment relative to IgG. Data are mean±SD **P<0.01***P<0.001
The ChIP protocol used was previously described (Lefebvre et al., 2006). Primers sequences for the pGL4.31[luc2P/GAL4 UAS/Hygro] promoter were: forward, 5′-[…]-3′ (SEQ ID N^o1), and reverse, 5′-[…]-3′ (SEQ ID N^o2); for p21 promoter: distal forward 5′-[…]-3′ (SEQ ID N^o3) and reverse 5′-[…]-3′ (SEQ ID N^o4); proximal forward 5′-[…]-3′ (SEQ ID N^o5) and reverse 5′-[…]-3′ (SEQ ID N^o6); p21 (transcription start site) TSS forward: 5′-[…]-3′ (SEQ ID N^o7) and reverse 5′-GCTCTCTCACCTCCTCTG3′ (SEQ ID N^o8); for GAPDH TSS: forward 5′-[…]-3′ (SEQ ID N^o9) and reverse 5′-[…]-3′ (SEQ ID N^o10). Antibodies used in the studies included the following: anti-acetylated H3 (Active motif, 39139) and anti-Tau1 (Millipore, MAB3420). All ChIP analyses were performed in at least two independent experiments.
To test this hypothesis, we next performed chromatin immunoprecipitations assays. Antibodies specific for acetylated H3 (ac-H3) and Tau were used to immunoprecipitate formaldehyde-cross-linked sonicated chromatin from short hairpin Tau knockdowns and control cells treated, or not, with 100 nM TSA. Quantitative PCR analysis of input or immunoprecipitated DNA using acetylated H3 and Tau antibodies was carried out to detect different promoter regions. As a control of non-TSA-inducible gene, we first used primers encompassing the transcription start site of the GAPDH promoter. No change in the level of acetylated H3, nor Tau binding, were detected after TSA treatment (FIG. 3A). […] In addition, Tau was detected at the level of these regions in MCF7shctrl cells (≈4-fold enrichment) in absence or presence of TSA treatment (FIG. 3D).

[3] = test system: GAL4 UAS promoter in GAL4UAS responsive luciferase reporter Hela stable cell line; assay: ChIP-qPCR of H3 acetylation or Tau occupancy on the GAL4UAS promoter; type: cell-based
From the text: as §1
The ChIP protocol used was previously described (Lefebvre et al., 2006). […]

## CC(/C=C/C(=O)NO)=C\[C@@H](C)C(=O)c1ccc(N(C)C)cc1 [TSA, 2,4-Heptadienamide, 7-[4-(dimethylamino)phenyl]-N-hydroxy-4,6-dimethyl-7-oxo-, (2E,4E,6R)-]
[1]; Tau knocked down MCF7 cells
  HP1α clusters per nucleus: 3 clusters
[1]; sh-control MCF7 cells
  HP1α clusters per nucleus: five
[2]; 100 nM TSA, MCF7shTau cells, p21 proximal and distal regions
  acetylated H3 enrichment compared to non-treated cells: ≈ 10 fold
[2]; 100 nM TSA, shctrl cells
  acetylated H3 enrichment compared to IgG: 70 fold
[2]; MCF7shctrl cells, p21 proximal and distal regions, in absence or presence of TSA treatment
  Tau enrichment (occupancy): ≈ 4 fold
[2]; shTau cells, irrespective of TSA treatment
  acetylated H3 enrichment compared to IgG: ≈ 160 fold
[3]; 100 nM TSA, Tau4R transfected HeLa cells
  TSA-induced increase of ac-H3 in the presence of transfected Tau4R: abrogated
[3]; TSA-treated condition (100 nM), Tau4R transfected
  Tau4R enrichment: 16 fold
